Tested on: NMNAT2
Assay: NMNAT2-Hibit nano-luciferase activity in stably transfected U87MG cells, various concentrations, 24 hours
Assay type: cell-based
Settings: U87MG cells stably transfected with NMNAT2-Hibit luc plasmid
Experimental: Selected compounds were tested in vitro. U87MG cells were stably transfected with NMNAT2-Hibit luc plasmid. Cells were treated with a test compound at various concentrations for 24 hours. Cells were then collected and assayed for nano-luciferase activity.

SMILES: Cc1ccc(C)c(Cn2c3c(c4ccccc42)CN(C(=O)NCc2cccc(F)c2)CC3)c1 [BC20253]
- E: compound efficacy for NMNAT2 activation (concentration giving >25% increase in NMNAT2 luciferase activity): + (“+” >25% increase in NMNAT2 luciferase activity at >25 μM.)

SMILES: O=C(CCCc1cn(Cc2cccc(F)c2)c2ccccc12)NCCc1ccccc1 [BC20146]
- E: compound efficacy for NMNAT2 activation (concentration giving >25% increase in NMNAT2 luciferase activity): ++ (“++” >25% increase in NMNAT2 luciferase activity at >1 μM ≤25 μM.)

SMILES: Cc1ccc(C)c(Cn2cc3c4c(cccc42)C(=O)N(Cc2ccccc2C)CC3)c1 [BC20271]
- E: compound efficacy for NMNAT2 activation (concentration giving >25% increase in NMNAT2 luciferase activity): + (“+” >25% increase in NMNAT2 luciferase activity at >25 μM.)

SMILES: O=C(NCCc1ccccc1)N1CCc2c(c3ccccc3n2Cc2cccc(F)c2)C1 [BC20311]
- E: compound efficacy for NMNAT2 activation (concentration giving >25% increase in NMNAT2 luciferase activity): + (“+” >25% increase in NMNAT2 luciferase activity at >25 μM.)

SMILES: CC(Cc1ccco1)NC(=O)CCCc1cn(Cc2cccc(F)c2)c2ccccc12 (stereo not shown) [BC20145]
- E: compound efficacy for NMNAT2 activation (concentration giving >25% increase in NMNAT2 luciferase activity): ++ (“++” >25% increase in NMNAT2 luciferase activity at >1 μM ≤25 μM.)

SMILES: Cc1ccc(Cn2cc(C3CCN(Cc4ccccc4C)C(=O)C3)c3ccccc32)cc1 (stereo not shown) [BC20232]
- E: compound efficacy for NMNAT2 activation (concentration giving >25% increase in NMNAT2 luciferase activity): + (“+” >25% increase in NMNAT2 luciferase activity at >25 μM.)

SMILES: Cc1ccc(C)c(Cn2c3c(c4ccccc42)CC(C(=O)NCc2cccc(F)c2)CC3)c1 (stereo not shown) [BC20184]
- E: compound efficacy for NMNAT2 activation (concentration giving >25% increase in NMNAT2 luciferase activity): + (“+” >25% increase in NMNAT2 luciferase activity at >25 μM.)

SMILES: Cc1c(C)n(Cc2cccc(F)c2)c2ccc(C(=O)NCc3cccnc3)cc12 [BC20265]
- E: compound efficacy for NMNAT2 activation (concentration giving >25% increase in NMNAT2 luciferase activity): ++ (“++” >25% increase in NMNAT2 luciferase activity at >1 μM ≤25 μM.)

SMILES: Cc1ccccc1CNC(=O)CCCc1cn(Cc2ccccc2C)c2ccccc12 [BC20153]
- E: compound efficacy for NMNAT2 activation (concentration giving >25% increase in NMNAT2 luciferase activity): ++ (“++” >25% increase in NMNAT2 luciferase activity at >1 μM ≤25 μM.)

SMILES: Cc1ccc(CNC(=O)N2CCc3c(c4ccccc4n3Cc3ccncc3)C2)cc1 [BC20337]
- E: compound efficacy for NMNAT2 activation (concentration giving >25% increase in NMNAT2 luciferase activity): + (“+” >25% increase in NMNAT2 luciferase activity at >25 μM.)

SMILES: Cc1c(C)n(Cc2ccccc2F)c2ccc(C(=O)N3CCN(C(=O)c4ccco4)CC3)cc12 [BC20107]
- E: compound efficacy for NMNAT2 activation (concentration giving >25% increase in NMNAT2 luciferase activity): ++ (“++” >25% increase in NMNAT2 luciferase activity at >1 μM ≤25 μM.)

SMILES: Cc1ccc(Cn2cc([C@H]3C[C@@H]3C(=O)NCc3cccc(F)c3)c3ccccc32)cc1 (racemic) [BC20295]
- E: compound efficacy for NMNAT2 activation (concentration giving >25% increase in NMNAT2 luciferase activity): + (“+” >25% increase in NMNAT2 luciferase activity at >25 μM.)

SMILES: Cc1ccc(Cn2c3c(c4ccccc42)C(C(=O)NCc2cccc(C)c2)CCC3)cc1 (stereo not shown) [BC20386]
- E: compound efficacy for NMNAT2 activation (concentration giving >25% increase in NMNAT2 luciferase activity): ++ (“++” >25% increase in NMNAT2 luciferase activity at >1 μM ≤25 μM.)

SMILES: COc1ccc(CCN2CCc3cn(Cc4cc(C)ccc4C)c4cccc(c34)C2=O)cc1 [BC20272]
- E: compound efficacy for NMNAT2 activation (concentration giving >25% increase in NMNAT2 luciferase activity): + (“+” >25% increase in NMNAT2 luciferase activity at >25 μM.)

SMILES: O=C(NCc1ccco1)N1CCc2c(c3ccccc3n2Cc2cccc(F)c2)C1 [BC20308]
- E: compound efficacy for NMNAT2 activation (concentration giving >25% increase in NMNAT2 luciferase activity): ++ (“++” >25% increase in NMNAT2 luciferase activity at >1 μM ≤25 μM.)

SMILES: Cc1ccc(Cn2cc([C@H]3C[C@@H]3C(=O)NCc3ccc(C)o3)c3ccccc32)cc1 (racemic) [BC20294]
- E: compound efficacy for NMNAT2 activation (concentration giving >25% increase in NMNAT2 luciferase activity): + (“+” >25% increase in NMNAT2 luciferase activity at >25 μM.)

SMILES: Cc1ccccc1CNC(=O)Cn1cc(C(=O)c2ccc(Cl)cc2)c2ccccc21 [BC20178]
- E: compound efficacy for NMNAT2 activation (concentration giving >25% increase in NMNAT2 luciferase activity): ++ (“++” >25% increase in NMNAT2 luciferase activity at >1 μM ≤25 μM.)

SMILES: Cc1ccccc1Cn1cc(CCCC(=O)Nc2cccc(C)c2C)c2ccccc21 [BC20161]
- E: compound efficacy for NMNAT2 activation (concentration giving >25% increase in NMNAT2 luciferase activity): ++ (“++” >25% increase in NMNAT2 luciferase activity at >1 μM ≤25 μM.)

SMILES: COc1ccc(CN2CC(C(=O)c3cn(Cc4ccccc4F)c4ccccc34)CC2=O)c(OC)c1 (stereo not shown) [BC20304]
- E: compound efficacy for NMNAT2 activation (concentration giving >25% increase in NMNAT2 luciferase activity): + (“+” >25% increase in NMNAT2 luciferase activity at >25 μM.)
